# Experimental data published in patent publication US10246426B2, “Triazole compounds as T-type calcium channel blockers” (IDORSIA PHARMACEUTICALS LTD, priority 2014, dated 2019).
# Target: Cav3.2 (Homo sapiens, UniProt O95180)
# Test: Calcium flux FLIPR assay, HEK293 cells recombinantly expressing Cav3.2
# Type: cell-based
# Settings: Cav3.2-channel, Ca2+ entry stimulated by 10 mM CaCl2
# Method in brief: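 Fluo-4-loaded HEK293 cells stably expressing Cav3.2, seeded overnight at 37 °C; compounds diluted in TEAC buffer (pH 7.2) and preincubated 3 min before Ca2+ entry triggered with CaCl2 at 10 mM final. Area under FLIPR fluorescence trace fitted sigmoidally; IC50 relative to vehicle signal.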
# Sequence of Cav3.2 (O95180 whole entry, looked up): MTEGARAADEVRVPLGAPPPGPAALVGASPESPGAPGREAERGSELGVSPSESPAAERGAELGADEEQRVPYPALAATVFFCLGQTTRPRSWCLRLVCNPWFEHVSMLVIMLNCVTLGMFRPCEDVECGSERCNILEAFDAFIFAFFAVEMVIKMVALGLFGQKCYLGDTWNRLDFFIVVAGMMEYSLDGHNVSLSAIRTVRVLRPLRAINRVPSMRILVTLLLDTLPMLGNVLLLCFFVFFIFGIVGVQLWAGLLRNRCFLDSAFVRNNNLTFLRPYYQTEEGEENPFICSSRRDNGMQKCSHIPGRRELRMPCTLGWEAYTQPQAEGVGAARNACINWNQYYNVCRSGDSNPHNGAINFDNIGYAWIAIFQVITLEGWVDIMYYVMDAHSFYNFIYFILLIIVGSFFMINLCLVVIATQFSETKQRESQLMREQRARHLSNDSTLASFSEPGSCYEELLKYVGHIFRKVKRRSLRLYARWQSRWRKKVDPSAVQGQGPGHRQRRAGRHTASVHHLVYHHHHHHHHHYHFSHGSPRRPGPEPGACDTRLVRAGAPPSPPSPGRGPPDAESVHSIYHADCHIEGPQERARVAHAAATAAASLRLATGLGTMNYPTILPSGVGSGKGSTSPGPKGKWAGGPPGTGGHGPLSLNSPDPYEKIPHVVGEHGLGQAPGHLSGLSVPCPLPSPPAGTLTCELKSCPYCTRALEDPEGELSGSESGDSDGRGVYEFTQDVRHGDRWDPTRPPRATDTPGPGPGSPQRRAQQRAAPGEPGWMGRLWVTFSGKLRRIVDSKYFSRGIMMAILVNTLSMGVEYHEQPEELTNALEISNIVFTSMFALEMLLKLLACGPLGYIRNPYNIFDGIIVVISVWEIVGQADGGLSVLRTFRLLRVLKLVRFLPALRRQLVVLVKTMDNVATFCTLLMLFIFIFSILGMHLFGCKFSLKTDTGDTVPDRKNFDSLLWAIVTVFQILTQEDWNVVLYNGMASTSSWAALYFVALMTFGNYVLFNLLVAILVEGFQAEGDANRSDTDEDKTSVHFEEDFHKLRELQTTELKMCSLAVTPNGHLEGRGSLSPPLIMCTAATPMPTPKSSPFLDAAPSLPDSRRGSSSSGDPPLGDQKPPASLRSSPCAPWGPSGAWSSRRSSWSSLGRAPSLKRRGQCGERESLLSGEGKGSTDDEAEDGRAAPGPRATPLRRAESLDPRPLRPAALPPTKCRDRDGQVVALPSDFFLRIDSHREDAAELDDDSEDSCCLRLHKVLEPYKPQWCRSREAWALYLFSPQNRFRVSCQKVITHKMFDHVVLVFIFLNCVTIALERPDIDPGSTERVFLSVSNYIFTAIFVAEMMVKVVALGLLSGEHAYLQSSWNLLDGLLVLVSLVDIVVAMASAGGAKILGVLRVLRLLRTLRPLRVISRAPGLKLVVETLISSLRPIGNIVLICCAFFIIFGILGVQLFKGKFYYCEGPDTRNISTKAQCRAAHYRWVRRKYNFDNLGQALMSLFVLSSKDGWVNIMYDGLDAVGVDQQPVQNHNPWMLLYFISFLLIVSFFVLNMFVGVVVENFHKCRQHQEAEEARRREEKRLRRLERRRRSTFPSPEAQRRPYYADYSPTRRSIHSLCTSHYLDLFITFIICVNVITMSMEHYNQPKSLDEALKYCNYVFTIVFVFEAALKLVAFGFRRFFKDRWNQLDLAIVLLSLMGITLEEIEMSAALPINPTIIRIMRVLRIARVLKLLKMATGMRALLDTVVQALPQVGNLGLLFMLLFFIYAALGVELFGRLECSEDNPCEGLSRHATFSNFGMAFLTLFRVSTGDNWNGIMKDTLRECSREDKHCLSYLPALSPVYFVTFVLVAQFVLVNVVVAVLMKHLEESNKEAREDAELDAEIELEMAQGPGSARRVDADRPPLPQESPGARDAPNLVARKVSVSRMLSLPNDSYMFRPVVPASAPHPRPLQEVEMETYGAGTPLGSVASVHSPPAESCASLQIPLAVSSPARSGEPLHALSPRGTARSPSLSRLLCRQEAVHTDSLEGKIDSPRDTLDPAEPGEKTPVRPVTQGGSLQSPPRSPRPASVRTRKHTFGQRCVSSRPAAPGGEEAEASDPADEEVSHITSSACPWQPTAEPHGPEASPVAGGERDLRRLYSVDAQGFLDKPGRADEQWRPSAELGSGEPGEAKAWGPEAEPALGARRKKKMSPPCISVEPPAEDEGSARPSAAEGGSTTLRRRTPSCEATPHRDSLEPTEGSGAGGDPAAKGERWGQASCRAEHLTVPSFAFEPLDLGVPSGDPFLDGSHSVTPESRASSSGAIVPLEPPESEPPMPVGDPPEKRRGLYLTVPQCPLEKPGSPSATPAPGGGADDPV
row,SMILES,IC50 [nM]
1,"COc1c(F)cc(Cn2ncc(NC(=O)Cc3ccc(C4(F)COC4)cc3)n2)cc1F [Example 148, N-[2-(3,5-Difluoro-4-methoxy-benzyl)-2H-[1,2,3]triazol-4-yl]-2-[4-(3-fluoro-oxetan-3-yl)-phenyl]-acetamide]",35
2,"CC(C)c1ccc(CC(=O)Nc2cnn(Cc3ccc(C#N)cc3)n2)cc1 [Example 26, N-[2-(4-Cyano-benzyl)-2H-[1,2,3]triazol-4-yl]-2-(4-isopropyl-phenyl)-acetamide]",19
3,"Cc1ccc(Cn2ncc(NC(=O)Cc3ccc(C(C)(C)C)cc3)n2)cc1 [Example 66, 2-(4-tert-Butyl-phenyl)-N-[2-(4-methyl-benzyl)-2H-[1,2,3]triazol-4-yl]-acetamide]",70
4,"Cc1ccc(Cn2ncc(NC(=O)Cc3ccc4c(cnn4C)c3)n2)cc1 [Example 69, N-[2-(4-Methyl-benzyl)-2H-[1,2,3]triazol-4-yl]-2-(1-methyl-1H-indazol-5-yl)-acetamide]",20
5,"Cc1ccc(Cn2ncc(NC(=O)Cc3ccc4c(ccn4C)c3)n2)cc1 [Example 64, N-[2-(4-Methyl-benzyl)-2H-[1,2,3]triazol-4-yl]-2-(1-methyl-1H-indol-5-yl)-acetamide]",30
6,"COc1cc(Cn2ncc(NC(=O)Cc3ccc(OCC4(C)COC4)cc3)n2)ccc1F [Example 112, N-[2-(4-Fluoro-3-methoxy-benzyl)-2H-[1,2,3]triazol-4-yl]-2-[4-(3-methyl-oxetan-3-ylmethoxy)-phenyl]-acetamide]",190
7,"N#Cc1ccc(Cn2ncc(NC(=O)Cc3ccc(N4CCC(F)(F)C4)nc3)n2)cc1 [Example 97, N-[2-(4-Cyano-benzyl)-2H-[1,2,3]triazol-4-yl]-2-[6-(3,3-difluoro-pyrrolidin-1-yl)-pyridin-3-yl]-acetamide]",36
8,"Cc1ccc(Cn2ncc(NC(=O)Cc3ccc(N4CCCC4)nc3)n2)cc1C#N [Example 213, N-[2-(3-Cyano-4-methyl-benzyl)-2H-[1,2,3]triazol-4-yl]-2-(6-pyrrolidin-1-yl-pyridin-3-yl)-acetamide]",120
9,"COc1ccc(Cn2ncc(NC(=O)Cc3ccc(C(C)C)cc3)n2)cc1 [Example 25, 2-(4-Isopropyl-phenyl)-N-[2-(4-methoxy-benzyl)-2H-[1,2,3]triazol-4-yl]-acetamide]",33
10,"O=C(Cc1ccc(N2CCC(F)(F)C2)nc1)Nc1cnn(Cc2ccc(OC(F)F)c(F)c2)n1 [Example 182, N-[2-(4-Difluoromethoxy-3-fluoro-benzyl)-2H-[1,2,3]triazol-4-yl]-2-[6-(3,3-difluoro-pyrrolidin-1-yl)-pyridin-3-yl]-acetamide]",13
11,"Cc1cc(Cn2ncc(NC(=O)Cc3ccc4c(c3)c(C)nn4C)n2)ccc1C#N [Example 169, N-[2-(4-Cyano-3-methyl-benzyl)-2H-[1,2,3]triazol-4-yl]-2-(1,3-dimethyl-1H-indazol-5-yl)-acetamide]",96
12,"COc1cc(Cn2ncc(NC(=O)Cc3ccc4c(cnn4C)c3)n2)ccc1F [Example 151, N-[2-(4-Fluoro-3-methoxy-benzyl)-2H-[1,2,3]triazol-4-yl]-2-(1-methyl-1H-indazol-5-yl)-acetamide]",73
13,"Cc1ccc(Cn2ncc(NC(=O)Cc3ccc(C4(C)COC4)cc3)n2)cc1 [Example 67, N-[2-(4-Methyl-benzyl)-2H-[1,2,3]triazol-4-yl]-2-[4-(3-methyl-oxetan-3-yl)-phenyl]-acetamide]",66
14,"CC(C)n1ncc2cc(CC(=O)Nc3cnn(Cc4ccc(F)c(F)c4)n3)ccc21 [Example 33, N-[2-(3,4-Difluoro-benzyl)-2H-[1,2,3]triazol-4-yl]-2-(1-isopropyl-1H-indazol-5-yl)-acetamide]",24
15,"N#Cc1ccc(Cn2ncc(NC(=O)Cc3ccc(C(F)(F)F)cc3)n2)cc1F [Example 159, N-[2-(4-Cyano-3-fluoro-benzyl)-2H-[1,2,3]triazol-4-yl]-2-(4-trifluoromethyl-phenyl)-acetamide]",61
16,"COc1cc(Cn2ncc(NC(=O)Cc3ccc(C4(C(F)(F)F)CC4)cc3)n2)ccc1F [Example 113, N-[2-(4-Fluoro-3-methoxy-benzyl)-2H-[1,2,3]triazol-4-yl]-2-[4-(1-trifluoromethyl-cyclopropyl)-phenyl]-acetamide]",230
17,"COC1(c2ccc(CC(=O)Nc3cnn(Cc4ccc(F)c(F)c4)n3)cc2)COC1 [Example 20, N-[2-(3,4-Difluoro-benzyl)-2H-[1,2,3]triazol-4-yl]-2-[4-(3-methoxy-oxetan-3-yl)-phenyl]-acetamide]",89
18,"COc1ccc(Cn2ncc(NC(=O)Cc3ccc(N4CCCC4)nc3)n2)cc1OC [Example 51, N-[2-(3,4-Dimethoxy-benzyl)-2H-[1,2,3]triazol-4-yl]-2-(6-pyrrolidin-1-yl-pyridin-3-yl)-acetamide]",600
19,"Cn1ccc2cc(CC(=O)Nc3cnn(Cc4ccc(OC(F)F)cc4)n3)ccc21 [Example 89, N-[2-(4-Difluoromethoxy-benzyl)-2H-[1,2,3]triazol-4-yl]-2-(1-methyl-1H-indol-5-yl)-acetamide]",20
20,"COc1cc(Cn2ncc(NC(=O)Cc3ccc(C(C)(C)C)cc3)n2)cc(F)c1C#N [Example 158, 2-(4-tert-Butyl-phenyl)-N-[2-(4-cyano-3-fluoro-5-methoxy-benzyl)-2H-[1,2,3]triazol-4-yl]-acetamide]",240
21,"CCOc1ccc(Cn2ncc(NC(=O)Cc3ccc(C4(C)COC4)cc3)n2)cc1 [Example 42, N-[2-(4-Ethoxy-benzyl)-2H-[1,2,3]triazol-4-yl]-2-[4-(3-methyl-oxetan-3-yl)-phenyl]-acetamide]",31
22,"Cn1ccc2cc(CC(=O)Nc3cnn(Cc4ccc(C#N)c(F)c4)n3)ccc21 [Example 70, N-[2-(4-Cyano-3-fluoro-benzyl)-2H-[1,2,3]triazol-4-yl]-2-(1-methyl-1H-indol-5-yl)-acetamide]",18
23,"Cc1cc(CC(=O)Nc2cnn(Cc3ccc(C#N)c(F)c3)n2)ccc1OCC(F)(F)F [Example 199, N-[2-(4-Cyano-3-fluoro-benzyl)-2H-[1,2,3]triazol-4-yl]-2-[3-methyl-4-(2,2,2-trifluoro-ethoxy)-phenyl]-acetamide]",17
24,"COc1c(F)cc(Cn2ncc(NC(=O)Cc3ccc(C4(C)COC4)cc3)n2)cc1F [Example 78, N-[2-(3,5-Difluoro-4-methoxy-benzyl)-2H-[1,2,3]triazol-4-yl]-2-[4-(3-methyl-oxetan-3-yl)-phenyl]-acetamide]",49
25,"Cn1ccc2cc(CC(=O)Nc3cnn(Cc4ccc(F)c(F)c4)n3)ccc21 [Example 7, N-[2-(3,4-Difluoro-benzyl)-2H-[1,2,3]triazol-4-yl]-2-(1-methyl-1H-indol-5-yl)-acetamide]",6.4
26,"Cc1cc2cc(CC(=O)Nc3cnn(Cc4ccc(F)c(F)c4)n3)ccc2[nH]1 [Example 31, N-[2-(3,4-Difluoro-benzyl)-2H-[1,2,3]triazol-4-yl]-2-(2-methyl-1H-indol-5-yl)-acetamide]",11
27,"Cc1ccc(Cn2ncc(NC(=O)Cc3ccc(OC4CC(F)(F)C4)cc3)n2)cc1C#N [Example 209, N-[2-(3-Cyano-4-methyl-benzyl)-2H-[1,2,3]triazol-4-yl]-2-[4-(3,3-difluoro-cyclobutoxy)-phenyl]-acetamide]",180
